# Reference: PubChem BioAssay (NCI)
#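 Method: 48-hour compound exposure of cells in 96-well plates, five concentrations, linear interpolation of endpoints. GI50: concentration for 50% inhibition of growth. TGI: concentration producing complete growth inhibition.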
# Tests used:
# Assay in all cases: NCI anticancer screen, dose series, 48 h
# OVCAR-3 ovarian = system: OVCAR-3 ovarian
# SF-268 CNS = system: SF-268 CNS
# OVCAR-4 ovarian = system: OVCAR-4 ovarian
# TK-10 renal = system: TK-10 renal
# SK-MEL-2 melanoma = system: SK-MEL-2 melanoma
# SN12C renal = system: SN12C renal
# NCI-H226 lung = system: NCI-H226 lung
# SR leukemia = system: SR leukemia
# A549 NSCLC = system: A549 NSCLC
# NCI-H522 lung = system: NCI-H522 lung
# KM12 colon = system: KM12 colon
# 786-0 renal = system: 786-0 renal
# EKVX NSCLC = system: EKVX NSCLC
# HL-60(TB) leukemia = system: HL-60(TB) leukemia
# SK-MEL-5 melanoma = system: SK-MEL-5 melanoma
# HOP-92 NSCLC = system: HOP-92 NSCLC
# NCI-H460 lung = system: NCI-H460 lung
# HCT-15 colon = system: HCT-15 colon
# DU-145 prostate = system: DU-145 prostate
# SF-295 CNS = system: SF-295 CNS
# OVCAR-5 ovarian = system: OVCAR-5 ovarian
# HOP-62 NSCLC = system: HOP-62 NSCLC
# M14 melanoma = system: M14 melanoma
# UACC-62 melanoma = system: UACC-62 melanoma
# PC-3 prostate = system: PC-3 prostate
# MDA-MB-231 breast = system: MDA-MB-231 breast
# SNB-75 CNS = system: SNB-75 CNS
# U251 CNS = system: U251 CNS
# SK-OV-3 ovarian = system: SK-OV-3 ovarian
# HCT-116 colon = system: HCT-116 colon
# UACC-257 melanoma = system: UACC-257 melanoma
# MDA-MB-435 = system: MDA-MB-435
# LOX IMVI melanoma = system: LOX IMVI melanoma
# BT-549 breast = system: BT-549 breast
# HS 578T breast = system: HS 578T breast
# T-47D breast = system: T-47D breast
# CAKI-1 renal = system: CAKI-1 renal
# K-562 leukemia = system: K-562 leukemia
# MOLT-4 leukemia = system: MOLT-4 leukemia
# ACHN renal = system: ACHN renal
# COLO 205 colon = system: COLO 205 colon
# RPMI-8226 leukemia = system: RPMI-8226 leukemia
# NCI/ADR-RES ovarian = system: NCI/ADR-RES ovarian
# IGROV1 ovarian = system: IGROV1 ovarian
# UO-31 renal = system: UO-31 renal
# SW-620 colon = system: SW-620 colon
# SNB-19 CNS = system: SNB-19 CNS
compound,measurement,setting,value
CC1=C(C(=O)Nc2ccc(Cl)c(Cl)c2)C(c2ccccc2Cl)NC(=S)N1 (centres undefined),GI50,OVCAR-3 ovarian,10.5 µM
same,TGI,OVCAR-3 ovarian,20.6 µM
same,GI50,SF-268 CNS,5.62 µM
same,TGI,SF-268 CNS,12.5 µM
same,GI50,OVCAR-4 ovarian,23.6 µM
same,TGI,OVCAR-4 ovarian,> 50 µM
same,GI50,TK-10 renal,10.1 µM
same,TGI,TK-10 renal,22.6 µM
same,GI50,SK-MEL-2 melanoma,14.6 µM
same,TGI,SK-MEL-2 melanoma,25.2 µM
same,GI50,SN12C renal,8.53 µM
same,TGI,SN12C renal,15.8 µM
same,GI50,NCI-H226 lung,10.1 µM
same,TGI,NCI-H226 lung,25.7 µM
same,GI50,SR leukemia,11.7 µM
same,TGI,SR leukemia,> 50 µM
same,GI50,A549 NSCLC,24.1 µM
same,TGI,A549 NSCLC,> 50 µM
same,GI50,NCI-H522 lung,13.6 µM
same,TGI,NCI-H522 lung,24.9 µM
same,GI50,KM12 colon,8.71 µM
same,TGI,KM12 colon,17.6 µM
same,GI50,786-0 renal,10.2 µM
same,TGI,786-0 renal,20 µM
same,GI50,EKVX NSCLC,9.09 µM
same,TGI,EKVX NSCLC,19 µM
same,GI50,HL-60(TB) leukemia,15.4 µM
same,TGI,HL-60(TB) leukemia,> 50 µM
same,GI50,SK-MEL-5 melanoma,7.96 µM
same,TGI,SK-MEL-5 melanoma,15.1 µM
same,GI50,HOP-92 NSCLC,1.15 µM
same,TGI,HOP-92 NSCLC,9.02 µM
same,GI50,NCI-H460 lung,6.58 µM
same,TGI,NCI-H460 lung,13.7 µM
same,GI50,HCT-15 colon,7.8 µM
same,TGI,HCT-15 colon,19 µM
same,GI50,DU-145 prostate,11.9 µM
same,TGI,DU-145 prostate,> 50 µM
same,GI50,SF-295 CNS,9.46 µM
same,TGI,SF-295 CNS,22 µM
same,GI50,OVCAR-5 ovarian,13.6 µM
same,TGI,OVCAR-5 ovarian,41.9 µM
same,GI50,HOP-62 NSCLC,12.4 µM
same,TGI,HOP-62 NSCLC,22.7 µM
same,GI50,M14 melanoma,11.6 µM
same,TGI,M14 melanoma,26.9 µM
same,GI50,UACC-62 melanoma,8.01 µM
same,TGI,UACC-62 melanoma,18.9 µM
same,GI50,PC-3 prostate,8.08 µM
same,TGI,PC-3 prostate,23.3 µM
same,GI50,MDA-MB-231 breast,7.15 µM
same,TGI,MDA-MB-231 breast,17.3 µM
same,GI50,SNB-75 CNS,5.48 µM
same,TGI,SNB-75 CNS,29.2 µM
same,GI50,U251 CNS,11.9 µM
same,TGI,U251 CNS,26.8 µM
same,GI50,SK-OV-3 ovarian,12.5 µM
same,TGI,SK-OV-3 ovarian,> 50 µM
same,GI50,HCT-116 colon,6.23 µM
same,TGI,HCT-116 colon,12.5 µM
same,GI50,UACC-257 melanoma,14.5 µM
same,TGI,UACC-257 melanoma,26.8 µM
same,GI50,MDA-MB-435,8.08 µM
same,TGI,MDA-MB-435,16.2 µM
same,GI50,LOX IMVI melanoma,> 50 µM
same,TGI,LOX IMVI melanoma,> 50 µM
same,GI50,BT-549 breast,39.4 µM
same,TGI,BT-549 breast,> 50 µM
same,GI50,HS 578T breast,6.38 µM
same,TGI,HS 578T breast,13.9 µM
same,GI50,T-47D breast,18.9 µM
same,TGI,T-47D breast,> 50 µM
same,GI50,CAKI-1 renal,9.85 µM
same,TGI,CAKI-1 renal,21.5 µM
same,GI50,K-562 leukemia,11 µM
same,TGI,K-562 leukemia,> 50 µM
same,GI50,MOLT-4 leukemia,8.92 µM
same,TGI,MOLT-4 leukemia,> 50 µM
same,GI50,ACHN renal,10.9 µM
same,TGI,ACHN renal,25.2 µM
same,GI50,COLO 205 colon,8.01 µM
same,TGI,COLO 205 colon,22.2 µM
same,GI50,RPMI-8226 leukemia,4.18 µM
same,TGI,RPMI-8226 leukemia,24 µM
same,GI50,NCI/ADR-RES ovarian,9.62 µM
same,TGI,NCI/ADR-RES ovarian,19.7 µM
same,GI50,IGROV1 ovarian,22.5 µM
same,TGI,IGROV1 ovarian,> 50 µM
same,GI50,UO-31 renal,8.06 µM
same,TGI,UO-31 renal,16.7 µM
same,GI50,SW-620 colon,10.8 µM
same,TGI,SW-620 colon,24.4 µM
same,GI50,SNB-19 CNS,0.695 µM
same,TGI,SNB-19 CNS,12.8 µM
